According to patent US20180318291A1, “USE OF AMINOTHIAZOLE MYD88 SPECIFIC INHIBITOR TJM2010-5” (WUHAN INNAMUNE PHARMACEUTICAL INC. LTD., priority 2015, published 2018):

Columns and labels:
GVHD mice = assay: GVHD model in irradiated BALB/c mice; format: in vivo
Protocol: Construction of GVHD model: Apply myeloablativetotal body irradiation (TBI, 710cGy) (HI-ENERGY PRIMV S-M X-ray source) on female BALB/c (H-2d) mice, and inject the bone marrow cell of […] of C57BL/6(B6, H-2^b) mice into it within 2 hours, and inject the B6spleen cells of […] into some of these female BALB/c (H-2d) mice at some time.
Groups: GVHD mice are divided into 4 groups, where the first group is control group, and the 8 mice in the group are provided with no post operation treatment; the second group is provided with intragastric administration of TJM2010-5 of 50 mg/kg/day since the day of irradiation; the third group is the MR1 group, in which the 8 mice are provided with the treatment of MR1 of 10 mg/kg/time on day 0, 1, 2, 3, 7 and 14 after irradiation; the forth group is the combination treatment group (TJM2010-5+MR1), in which the 8 mice are treated with TJM2010-5 and MR1 by the method mentioned above.
In case TJM2010-5 is combined with MR1, it can reverse 100% of GVHD. However, other aminothiazole compounds have no or little such curative effect.

[1] = test system: lymphocyte subpopulation in receptor spleen; assay: lymphocyte subpopulation in receptor spleen by flow cytometry; format: in vivo, mice; conditions: FIG. 5
Excerpt: In vitro experiment: conduct analysis on lymphocyte subpopulation in receptor spleen receiving stimulation of antigen (homogenic, allogeneic), and flow cytometer detection on CD4+CD25+Foxp3+T cell ratio in receptor receiving TJM2010-5 treatment.
1. Take the receptor spleen of different groups (homogenic, allogenic antigenic stimulation), and grind them to separate lymphocyte;
2. Add the IFN-γ labeled by flow antibody APC and IL-17 labeled by APC, CD25 labeled by APC and Foxp3 labeled by PE.
3. Analyze the lymphocyte subpopulation in receptor spleen of various groups, and the CD4+CD25+Foxp3+T cell ratio in receptor receiving TJM2010-5 treatment with flow cytometry.

C57bl/6 mice kidney IRI = assay: renal ischemia reperfusion injury in mice; format: in vivo
Protocol: 1. Groups: General C57bl/6 group (Control), CMC vehicle group, MYD88KO group, TJ-M2010 group, the 8 mice in each group will be provided with treatment of ischemia reperfusion: narcotize, block the left kidney with vascular clamp, and place them in incubator of 31 C° for 80 min; after that, open it and remove the right kidney, and then close the abdomen. Collect blood 24 hours later to conduct BUN, Cr detection.
2. For TJM2010-5 group and CMC group, provide intraperitoneal injection of TJ-M2010-5 dissolved in 0.5% CMC of 150 mg/kg/d on the day before and the day of operation; for CMC group: inject 0.5% CMC solution of 200 μl.
3. Observe the survival time of mice, and make the survival curve. Send the blood specimen to the pathology department for detection of BUN, Cr.

[2] = test system: inflammatory factors (IL-1β, TNF-α, IL-6) in graft; assay: real time quantitative PCR of inflammatory factors in graft; format: in vivo, mice
Excerpt: 1. Extract the total RNA from the receptor receiving antigen (homogenic, allogenic) stimulation by the TRIzol method;
2. Reversely transcribe them to cDNA by the two-step method of RT-PCR;
3. Make the standard curve to compare the measured relative level of IL-1β, TNF-α, IL-6.

C57bl/6 mice = assay: BLM (bleomycin) pulmonary inflammation model; format: in vivo
Protocol: 1. Animal grouping: C57bl/6(B6) NaCl (200 μl nasal drip) group, C57bl/6 (B6) BLM group and TJM2010-5BLM group (provide intraperitoneal injection of TJM2010-5 dissolved in 0.5% CMC of 150 mg/kg/d on day 0-3, 5, 7, 9, 11, 13, 15).
2. Construct pulmonary inflammation model with BLM (bleomycin) nasal drips: conduct airway anesthesia with 40 μl of ketaminexylazine, and administrate BLM sulfate by nasal dripping (300 μg or 15 mg/kg).
3. Collect cell and cytokines with bronchoalveolar lavage fluid (BAL): Cut open the trachea and insert the plastic sleeve; then lavage with 0.3 ml of PBS at 37° C., and withdraw the lavage fluid (the withdrawn fluid is more than 95%), and repeat the process for 10 times. The lavage fluid consists of two parts: one part is used for detection of cytokins (600 g, conduct centrifugation for 10 min, collect and store the supernatant at −80° C. for detection); the other part is used for cell counting (0.4 ml, including substratum, suspension), count at 4° C.
4. Detect cells and factors in tissue with pulmonary homogenate: After BAL, take and grind the whole lung, and conduct centrifugation to take supernatant, then, store it at −80 C° for detection of MPO.
5. Conduct activity detection of pulmonary MPO: Completely lavage the lung with saline passing through right heart, and take pulmonary tissue homogenate, then conduct centrifugation to take supernatant. After that, suspend and precipitate it with 1 ml of PBS (including 0.5% of HTAB, 5 mM of EDTA). Conduct centrifugation, add 50 μl of supernatant into tube (200 μl of PBS-HTAB-EDTA, 2 ml of HBSS, 100 μl of o-dianisidine dihydrochloride (1.25 mg/ml), 100 μl of H2O2 0.05%), and put it into vortex water tank at 37° C. for 15 min. Then, stop the reaction with 100 μl of NaN3 1%, and detect the MPO absorption value with 460 nm.
6. Conduct cell counting: Dye with MG-1L for 4 min, and dye with 95% of GS-500 for 8 min. Then, make smear to count cells.
7. Conduct factor detection: detect the level of IL-6 with ELISA.

mice with pyohemia = assay: pyohemia / septicopyemia lethal experiment (cecal ligation and puncture); format: in vivo; conditions: CLP; 250 mg/kg intragastric 4 times every 12 h; FIG. 15(b)
Protocol: Part two: Observe the effect of MyD88 inhibitor on mortality of mice with pyohemia. The mice will be randomly divided into: sham-operation group, model group, MyD88 inhibitor treatment group. Except for the mice in sham-operation group that only receive post-operative suture, the mice in pyohemia model group and MyD88 inhibitor treatment group are provided with the cecal ligation and puncture (CLP), to copy the pyohemia mice model. At 1 h after operation, apply intragastric administration of 0.5% CMC 200 μL or TJM2010-5 of 250 mg/kg (200 μL) for 4 times successively, and each time lasts for 12 h. After operation, observe the survival rate of mice in each group every 12 h, and for 72 h successively.

## O=C(CCN1CCN(Cc2ccccc2)CC1)Nc1nc(-c2ccccc2)cs1 [TJM2010-5, 3-(4-benzylpiperazin-1-yl)-N-(4-phenylthiazol-2-yl) propanamide]
GVHD mice; 50 mg/kg/day intragastric since day of irradiation, FIG. 2a-A
  weight vs control group: higher than that of control group
GVHD mice; 50 mg/kg/day intragastric, FIG. 2a-B
  GVHD level vs control group: significantly lower than that of control group
GVHD mice; 50 mg/kg/day intragastric, FIG. 2a-C
  survival rate vs control group: significantly higher than that of control group
GVHD mice; FIG. 2c
  general performances of mice: close to normal mice
GVHD mice; TJM2010-5 alone or combined with MR1
  GVHD reversed: 70%
GVHD mice; each TJM2010 compound combined with MR1, 50 mg/kg/day intragastric, 8 mice per group
  survival rates of the mice after 60 days: 100%
[1]; receptor spleen lymphocytes
  IFN-γ vs CMC control group: significantly lower than that of CMC control group
  IL-17 vs CMC control group: significantly lower than that of CMC control group
[1]; receptor spleen
  CD4+CD25+Foxp3+T cell ratio in receptor: up-regulated significantly
C57bl/6 mice kidney IRI; 150 mg/kg/d intraperitoneal day before and day of operation, FIG. 6
  survival rate after mice kidney IRI: significantly improve
C57bl/6 mice kidney IRI; 150 mg/kg/d intraperitoneal, blood 24 hours later, FIG. 7
  protection of kidney functions (BUN, Cr): better protection effect
[2]; FIG. 9
  level of inflammatory factors (IL-1β, TNF-α, IL-6) in heart graft vs control group: significantly lower than that of control group
[2]; FIG. 9a
  level of IL-1β in graft vs CMC allogeneic transplantation group: significantly lower than those in CMC allogeneic transplantation group
[2]; FIG. 9c
  level of IL-6 in graft vs CMC allogeneic transplantation group: significantly lower than those in CMC allogeneic transplantation group
C57bl/6 mice; 150 mg/kg/d intraperitoneal, FIG. 10b
  recruitment of bronchialveolar neutrophile granulocyte: reduces significantly
C57bl/6 mice; at 24 h, FIG. 11b
  level of IL-6 in lung tissue: reduces
C57bl/6 mice; day 1, 7, 11, FIG. 10a
  total cell numbers in bronchial alveolar vs WT mice: statistical differences
C57bl/6 mice; detection on day 7, FIG. 11a
  MPO factor in lung tissue: reduced
Mice with pyohemia
  death time and final mortality of pyohemia in mice: significantly improve
